Several values for one entry are separate records, joined by “and”; a condition that tells them apart may be missing. Equal values may be shown once.
Assays:
[1] = Particle size distribution by sieving method (ro-tap-type sieve shaker); assay type: physicochemical; settings: drug substance before processing, % by weight
From the text: (§1) In the present invention, the particle size distribution of each of the drug substance (A) and the powder (B) can be determined by a weight-based distribution evaluation by a sieving method (measurement device: a ro-tap-type sieve shaker or the like) and a volume-based distribution evaluation by a laser-diffraction method (also referred to as “a laser diffraction scattering method”) (measurement device: Mastersizer 2000 or Mastersizer 3000 [Malvern] or the like, dispersion compression air pressure: 2 to 4 bars).

[2] = Particle size distribution by laser-diffraction method (Mastersizer 2000); assay type: physicochemical; settings: drug substance before processing
From the text: as §1

SMILES	particles each having a particle size of 60 μm or less [1]	particles each having a particle size of 500 μm or more [1]	particles each having a particle size of 50 μm or less [2]	particles each having a particle size of 500 μm or more [2]
CC(C)Cc1ccc(C(C)C(=O)O)cc1 (stereo not shown) [Ibuprofen, ibuprofen]	27.2%	11%	–	–
CC(=O)Nc1ccc(O)cc1 [Acetaminophen, acetaminophen]	32.9%	14%	25.11 % by volume and 21.08 % by volume	3.57 % by volume and 5.82 % by volume
CC(C)C[C@H](CN)CC(=O)O [Pregabalin, pregabalin]	14.5%	–	–	–

— patent US20210267900A1, “PROCESSING METHOD FOR DRUG SUBSTANCE PARTICLES OF NON-UNIFORM PARTICLE SIZE” (NIPPON ZOKI PHARMACEUTICAL CO., LTD., priority 2018, published 2021)
